Entries after “also recorded” stand apart in the source; their conditions may differ. Read-outs that look alike come from different tables or passages of the source. Ends that are not written are not given here. * marks the point of attachment. FITC = O=C1OC2(c3ccc(O)cc3Oc3cc(O)ccc32)c2ccc(NC(=S)*)cc21; Biotin = O=C1N[C@H]2[C@H](CS[C@H]2CCCCC(=O)*)N1; Acp = not defined here
Assays:
[1] = test system: X-protein; assay: Western blot of X-protein in transfected HepG2 cells treated with X-protein-degradation domain fusion peptides; type: cell-based, hepatitis B virus; conditions: HepG2 transfected with pCDNA3.1-HBX or pCDNA3-HBX Myc; 10 μM peptide at 3 h, 24 h and 48 h post transfection
Experimental: HepG2 cells were seeded into 6 well plates at 1×10^6 cells per well in MEM medium supplemented with 10% FCS, and cultured overnight at 37° and 5% CO2. No PSG antibiotic was added to the medium as it can interfere with transfection efficiency. The medium was then removed and replaced with MEM medium without 10% FCS. The amount of DNA used for transfection was 4 μg. Firstly, 4 μg of DNA was mixed with 250 μl of Opti-MEM medium, and then 4 μl of polymag transfection reagent was added. The mixture was incubated for 20 min and then added to the cells. The plate was placed onto a magnetic plate on a rotating platform for 20 min.
Cell-permeable X-protein-degradation domain fusion peptides were added at a concentration of 10 μM to the cells in MEM without 10% FCS and cells incubated for 45 h. […] An additional 10 μM of peptide was added after 3 h of incubation, and a further 10 μM of peptide was added after 21 h incubation. When the additional aliquots of peptide were added, the cells were washed in MEM without FCS, the peptides added, and the cells incubated for 3 h before changing the medium to MEM containing 10% FCS and PSG. The cells were lysed and analyzed by Western blot analysis for expression of the X-proteins.
Cells were washed with PBS, and detached from plates by incubation with trypsin diluted in PBS. Cells were washed with MEM containing FCS to inactivate trypsin, and pelleted by centrifugation at 175 g for 5 min. They were then resuspended in 1 ml of PBS, and a 10 μl sample was removed, stained with Trypan blue, and cell number counted with a haemocytometer. The cells were then pelleted at 4,000 g for 5 min and thrice washed in PBS. All traces of liquid were removed and the cells were ready for cell lysis. Complete Lysis Buffer was added to the cells at 20 μl per 1×10^6 cells. The cells were resuspended very well to aid lysis and then left on ice for 10 min. They were centrifuged at 15,000 g for 10 min, and the supernatant collected and saved. The nuclear precipitate was processed by adding 13 μl of lysis buffer, 2 μl of 2% SDS, 2 μl of Na deoxycholate, 2 μl of DNAse buffer and 1 μl of DNAse I. The sticky cell lysate was resuspended vigorously after each reagent was added then incubated at 37° for 10 min.
The two X-protein-ODD fusion peptides were tested for their ability to decrease the level of X-protein expression. HepG2 cells were transfected with 4 μg of either the X-protein plasmids pCDNA3.1-HBX and pCDNA3-HBX Myc, or 4 μg of the pCDNA3-GFP vector. The X-protein-ODD fusion peptides were repetitively added to the cells at 3 h, 24 h and 48 h post transfection. Control transfectants were not treated with peptide, but were otherwise cultured under the same conditions. Transfectants were subjected to Western blotting to determine whether the X-protein was expressed. […]

[2] = biological target: mutated B-Raf (Homo sapiens, UniProt P15056, V600E); conditions: in vivo; cited from earlier work
[3] = test system: TK-1 T cells adherent to MAdCAM-1; assay: Carriage of a foreign peptide into TK-1 cells; type: cell-based; conditions: 50 μM, 30 min, streptavidin-FITC detection
Experimental: Eight-well glass chamber slides were coated overnight at 4° C. with MAdCAM-1-Fc. They were blocked with FCS at RT for 2 h. TK-1 T cells were activated with 2 mM Mn2+/Ca2+ in HBSS buffer and added to MAdCAM-1 coated glass slides, followed by incubation for 15 min. Peptides […] (SEQ ID NO 15) and R9YDRREY (SEQ ID NO 14) were added at 50 μM followed by incubation for 30 min. The cells were fixed overnight in 4% PFA, permeabilised with PBS+0.1% Tween 20 for 15 min, blocked with 3% BSA in PBS for 1 h, and the presence of the peptides detected with FITC-Streptavidin (1:200 dilution in 3% BSA in PBS 1 h). Slides were mounted with Prolong gold with DAPI.
The X-protein cell-permeable peptide LCLRPVG (SEQ ID NO: 2) was fused to the hexapeptide YDRREY (SEQ ID NO 16) taken from the cytoplasmic domain of the human integrin β7 subunit. The peptides were separated by a glycine linker, and a biotin tag was added N-terminally. The fusion peptide was compared with the YDRREY (SEQ ID NO 16) peptide fused to an R9 (SEQ ID NO: 145) carrier peptide for its ability to enter TK-1 T cells adherent to MAdCAM-1.

[4] = test system: WM-266-4 melanoma cells; assay: Apoptosis by anti-B-raf antibody delivered with the carrier peptide (Annexin-V fluos); type: cell-based; conditions: 1 μg/ml, 3 h
Experimental: The carrier peptide-rabbit anti-B-raf antibody conjugate (1 μg/ml), the unconjugated carrier peptide and unconjugated anti-B-raf antibody (1 μg/ml) were added to WM-266-4 melanoma cells, and cell apoptosis was assessed after 3 h by addition of Annexin-V fluos, with visualization by fluorescence microscopy. Untreated cells were included as an additional control. Cell nuclei were stained with DAPI. The results were merged to illustrate the numbers of cells that underwent apoptosis compared with the total number of cells ie the proportion of cells that underwent apoptosis.

[5] = test system: HepG2 cells; assay: Assay for cell permeability of X-protein peptides (fluorescence and confocal microscopy); type: cell-based, human; conditions: for uptake by HepG2 cells (cell permeability): FITC-labelled peptide 10 μM, 3 h, medium without FCS; for intracellular distribution (confocal slicing): FITC-labelled peptide, HepG2 cells
Experimental: The cells were then incubated overnight at 37° and 5% CO2, and then washed thrice with media without FCS. The X-protein peptide in 250 μl of appropriate media without FCS was added to the cells at a final concentration of 10 μM, and the slides incubated for 3 h at 37° C. and 5% CO2. The cells were washed with PBS, fixed with 4% formaldahyde in PBS for 30 min, and washed thrice with PBS. […] The slides were dried overnight in the dark, and examined by microscopy by using a Nikon E600 fluorescent microscope. Photos were taken using Nikon ACT-1 software. For further examination, slides were then examined by confocal microscopy using a Leica TCS-SP2 confocal microscope.

[6] = biological target: T1, X-protein N-terminal peptide 1-50 (Hepatitis B virus genotype C subtype adr, UniProt Q81163, DEL44-44/P38S/S41A/S42F/V5L); assay: Peptide binding assay: FITC-peptides on peptide 1-50-coated plates; conditions: FITC-peptide at 10, 20, 40 μg/ml, 30 min
T1 construct: The parent peptide containing aa 1-50 conjugated N-terminally to a biotin tag; purchased; host or cells: chemical synthesis
Experimental: Qligomerization peptides were received in powdered form, and were weighed and diluted in a sterile 10% DMSO solution to make a 10 mg/ml stock solution. The wells of a Reactibind neutravidin-coated 96 well plate (Thermoscientific cat #15507) were thrice washed with 200 μl of plate washing buffer. Peptide 1-50, which contains a biotin tag, was diluted to 10 μg/ml in wash buffer and 100 μl of the solution was placed into each well being used. The plate was incubated at room temperature for 2 h, and the wells washed thrice with 200 μl of wash buffer. Truncated fluorescent variants of peptide 1-50 at 40 μg/ml, 20 μg/ml, and 10 μg/ml were added to the wells in triplicate, and the plates incubated at room temperature for 30 min. The wells were then washed thrice with 200 μl of wash buffer under low light conditions, and the plate read on a Biotek fluorescent plate reader at an excitation wavelength of 490 nm and an emission wavelength of 520 nm.
A ligand-binding assay was performed using streptavidin-coated plates in order to define the minimum peptide motif needed for dimerization of the X-protein. In this scenario the X-protein monomer serves as its own ligand. […] A series of short peptides from the region encoding aa 1-50 were synthesized. The parent peptide containing aa 1-50 conjugated N-terminally to a biotin tag was added to the streptavidin coated plates. […] Non-biotinylated peptides encoding aa 1-20, 16-35, 21-40 and 34-53 were added at 10, 20, and 40 μg/ml to the wells coated with peptide aa 1-50. The smaller peptides were each conjugated to a FITC tag for detection using a fluorescent plate reader. […] Binding performed with lesser concentrations of the peptides was not significant. Even smaller peptides encompassing that region 16-35 were made to determine whether the aa 16-35 was the minimum peptide motif needed for X-protein dimerization. These peptides synthesized, namely aa 16-26, 16-24, and 16-22 were analyzed using the same peptide binding assay. […] Thus of the peptides examined, the minimal peptide motif needed for dimerization of the X-protein is the […] peptide 16-35.

[7] = test system: C32 melanoma cells; conditions: C32, 10 μM, 3 h
Experimental: (§1) The melanoma cell lines WM-266-4 and C32 were seeded into 8-well chamber slides at 1×10^5 cells per well in full MEM media and incubated at 37° C. and 5% CO2 overnight. The next day the cells were washed thrice with serum-free MEM, resuspended in 500 μl of the same medium, and added to the wells. […] Annexin-V labelling solution was prepared by adding 20 μl of Annexin V labelling reagent and 10 μl of propidium iodide in 1 ml of incubation buffer. The cells were washed with incubation buffer, and 100 μl of Annexin-V labelling solution was added, followed by incubation for 15 min in the dark. The cells were washed with incubation buffer, fixed with 4% formaldehyde in PBS for 30 min, washed with PBS and slide chambers removed. A drop of Prolong Gold anti-fade reagent with DAPI was added to each sample, the slides dried overnight, and then examined by fluorescence microscopy.

[8] = test system: WM-266-4 melanoma cells; conditions: WM-266-4, 20 μM, 3 h
Experimental: as §1

[9] = listed as biotin-RRRRRRRRHKLVRSPAPCKFFTSAGGLNVTAPTPQQLQAFKNEVGVLRK

Sequence of mutated B-Raf (P15056 whole entry V600E): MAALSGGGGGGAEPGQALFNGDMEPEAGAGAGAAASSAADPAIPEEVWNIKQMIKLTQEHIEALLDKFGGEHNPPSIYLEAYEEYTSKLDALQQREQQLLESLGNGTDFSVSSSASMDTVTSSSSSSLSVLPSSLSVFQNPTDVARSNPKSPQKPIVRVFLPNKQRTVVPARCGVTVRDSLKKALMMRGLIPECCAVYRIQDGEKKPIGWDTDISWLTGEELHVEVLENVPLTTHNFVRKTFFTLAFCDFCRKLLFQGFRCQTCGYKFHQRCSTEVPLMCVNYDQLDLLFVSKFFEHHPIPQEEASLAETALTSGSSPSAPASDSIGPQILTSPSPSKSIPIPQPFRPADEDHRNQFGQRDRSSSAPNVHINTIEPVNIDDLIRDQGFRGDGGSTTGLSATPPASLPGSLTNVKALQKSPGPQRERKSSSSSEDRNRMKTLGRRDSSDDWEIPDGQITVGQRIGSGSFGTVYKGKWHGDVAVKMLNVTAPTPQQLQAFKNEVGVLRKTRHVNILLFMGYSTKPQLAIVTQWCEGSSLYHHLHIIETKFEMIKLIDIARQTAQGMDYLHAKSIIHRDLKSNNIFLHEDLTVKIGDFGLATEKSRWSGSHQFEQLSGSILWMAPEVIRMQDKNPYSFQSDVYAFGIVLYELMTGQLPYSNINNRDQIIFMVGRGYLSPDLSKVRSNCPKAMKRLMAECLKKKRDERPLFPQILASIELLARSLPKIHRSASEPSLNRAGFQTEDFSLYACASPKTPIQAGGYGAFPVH

Biotin-RRRRRRRRHKLVRSPAPCKFFTSAGGLCLRPVGAESRGRPVSGPFG (cysteine pairing not given here)
degradation of the X-protein (Western blot, nuclear fraction) [1]: complete degradation of the X-protein

CCCS(=O)(=O)Nc1ccc(F)c(C(=O)c2c[nH]c3ncc(-c4ccc(Cl)cc4)cc23)c1F [PLX4032]
patients with regression of melanomas [2]: 80 % of patients

R9YDRREY (RRRRRRRRRYDRREY; not fully specified (N-terminus); also: biotin, position not given here) [Peptide R9YDRREY, biotinylated YDRREY peptide fused to an R9 carrier peptide, reference compound]
uptake of biotinylated fusion peptide into TK-1 cells [3]: entered all the cells

Biotin-LCLRPVGGGRRRQQQQQQRRR
cell apoptosis [4]: no detectable effect

FITC-Acp-FGPLSSPAFSVPADHGAHLS ({FITC-Acp}-FGPLSSPAFSVPADHGAHLS; reading uncertain; also: printed as FITC-Acp-FGPLSSPAFSVPADHGAHLS) [Peptide 34-53]
uptake by HepG2 cells (cell permeability) [5]: not cell-permeable

Biotin-RRRRRRRRLCLRPVGAESRGRPVSGPFGGCRHKLVRSPAPCKFFTSA (cysteine pairing not given here)
degradation of the X-protein (Western blot, nuclear fraction) [1]: near complete degradation of the X-protein, with slight preference for the full length protein

FITC-Acp-MAARLCCQLDPARDVLCLRP [Peptide 1-20]
uptake by HepG2 cells (cell permeability) ([5]; listed as aa 1-20): cell-permeable; also recorded: readily taken up by the cells
intracellular distribution (confocal slicing) [5]: taken up into the cell cytoplasm, as well as into the nucleus

MAARLCCQ (cysteine pairing not given here; also: fluorescein label, position not given here) [Peptide 1-8]
uptake by HepG2 cells (cell permeability) [5]: cell-permeable

FITC-Acp-VGAESRGRPVSGPFGPLSSP ({FITC-Acp}-VGAESRGRPVSGPFGPLSSP; reading uncertain; also: printed as FITC-Acp-VGAESRGRPVSGPFGPLSSP) [Peptide 21-40]
uptake by HepG2 cells (cell permeability) [5]: not cell-permeable
binding to peptide 1-50 (fluorescence) [6]: failed to appreciably bind peptide 1-50

FITC-LCLRPVGAESR ({FITC}-LCLRPVGAESR) [Peptide 16-26]
uptake by HepG2 cells (cell permeability) ([5]; listed as aa 16-26): cell-permeable, being taken up by cells at a level equivalent to that of the parental peptide aa 16-35
binding to peptide 1-50 (fluorescence) [6]: could not match the strong binding shown by the parental peptide 16-35

LCLRPVGAESRGRPV [Peptide 16-30]
binding to peptide 1-50 (fluorescence) [6]: binds to the X-protein N-terminal peptide 1-50; also recorded: bound peptide 1-50 even more strongly than peptide 16-35

FITC-LCLRP ({FITC}-LCLRP) [Peptide 16-20]
uptake by HepG2 cells (cell permeability) ([5]; listed as aa 16-20): cell-permeable; also recorded: taken up into the cells

Biotin-RRRRRRRRHKLVRSPAPCKFFTSAGGLNVTAPTPQQLQAFKNEVGVLRK [B-Raf targeting peptide]
tumour cell death / apoptosis [7]: killed the melanoma cells
tumour cell death / apoptosis [7, 9]: led to tumour cell death
tumour cell death / apoptosis [8]: killed the melanoma cells
tumour cell death / apoptosis [8, 9]: led to tumour cell death

LCLRPVGGYDRREY (Biotin-LCLRPVGGYDRREY) [biotinylated LCLRPVG fused via glycine linker to β7 integrin hexapeptide YDRREY]
uptake of biotinylated fusion peptide into TK-1 cells [3]: uniformly taken up in similar amounts by all cells

FITC-Acp-RRRRRRRRLCLRPVGAESRGRPVSGPFGGMLAPYIPM
degradation of the X-protein (Western blot, nuclear fraction) [1]: near complete degradation of the X-protein

FITC-Acp-RRRRRRRRMLAPYIPMGGLCLRPVGAESRGRPVSGPFG
degradation of the X-protein (Western blot, nuclear fraction) [1]: complete degradation of the X-protein

MAARLCCQLDPARDV [Peptide 1-15]
uptake by HepG2 cells (cell permeability) ([5]; listed as aa 1-15): cell-permeable; also recorded: taken up into the cells
intracellular distribution (confocal slicing) [5]: taken up into the cytoplasm and nucleus

FITC-LCLRPVGAE ({FITC}-LCLRPVGAE) [Peptide 16-24]
uptake by HepG2 cells (cell permeability) ([5]; listed as aa 16-24): cell-permeable, being taken up by cells at a level equivalent to that of the parental peptide aa 16-35
binding to peptide 1-50 (fluorescence) [6]: could not match the strong binding shown by the parental peptide 16-35

From US20150158914A1, “PEPTIDES, CONSTRUCTS AND USES THEREFOR” (priority 2010, published 2015)
